Test results from patent publication US11806441B2, “Viscoelastic hydrogels with fast stress relaxation” (President and Fellows of Harvard College, priority 2014, dated 2023).

Test system: U2OS cells
Experiment: U2OS cells plated on 2D alginate substrates: spreading, YAP localization, proliferation
Format: cell-based, human
Settings: 10 μM, initial Young's modulus 1.4 kPa, RGD 1500
Method: Plating of cells on gels. 1 mm thick alginate hydrogels were prepared as previously described (Zhao et al. J. Appl. Phys. 107, 63509 (2010); and Huebsch et al. Nat Mater 9, 518-526 (2010)). Following gelation, 15 mm disks were punched out, and these disks were washed thoroughly 4 times over 2 days in serum free media to remove any excess calcium. […] Cells were allowed to spread for 20 hours, and then were fixed and stained for analysis. Only isolated cells, without any cell-cell contacts, were analyzed. Immunohistochemistry. For immunohistochemical staining, media was first removed from the gels. The gels were then fixed with 4% paraformaldehyde in serum free DMEM at 37° C. for 30-45 minutes. Gels were then washed 3 times in PBS containing calcium (cPBS). Gels from 3D studies were then incubated overnight in 30% sucrose in cPBS at 4° C. […] Images of all single cells were then thresholded manually based on the actin stain, and the area of the thresholded cell body was determined using a custom macro in ImageJ (NIH). […] The YAP nuclear localization ratio was then determined as the summed intensity of the YAP signal within the nucleus normalized by the nuclear area divided by the summed intensity of the YAP signal outside of the nucleus normalized by the non-nuclear cytoskeleton area.

## C[C@@H](N)[C@H]1CC[C@H](C(=O)Nc2ccncc2)CC1 [Y-27632]
  effect on increased cell spreading on stress relaxing substrate: abrogated the increased cell spreading
